Laboratory results as given in patent publication US10499641B2 (priority 2010, dated 2019).

Key:
[1] = tested on: Phytophthora infestans; assay type: in vivo; settings: young tomato plants, sprayed, active ingredient concentration 100 ppm, inoculated 1 day after treatment, evaluation 7 days after inoculation; 100% = no infection
[2] = tested on: Plasmopara viticola; experiment: Plasmopara test (grapevine)/protective; assay type: in vivo; settings: young grapevine plants, sprayed, active ingredient concentration 10 ppm, evaluation 6 days after inoculation; 100% = no infection
Method: Plasmopara Test (Grapevine)/Protective
• Solvent: 24.5 parts by weight of acetone • 24.5 parts by weight of dimethylacetamide • Emulsifier: 1 part by weight of alkylaryl polyglycol ether
[To produce an appropriate active ingredient formulation, 1 part by weight of active ingredient is mixed with the specified amounts of solvent and emulsifier, and the concentrate is diluted with water to the desired concentration.
To test for protective efficacy, young plants are sprayed with the active ingredient formulation at the stated application rate. After the spray coating has dried on, the plants are inoculated with an aqueous spore suspension of Plasmopara viticola and then remain in an incubation cabin at approx. 20° C. and 100% relative air humidity for 1 day. Subsequently, the plants are placed in a greenhouse at approx. 21° C. and approx. 90% air humidity for 4 days. The plants are then moistened and placed in an incubation cabin for 1 day.
Evaluation follows 6 days after the inoculation. 0% means an efficacy which corresponds to that of the control, whereas an efficacy of 100% means that no infection is observed.
In this test, the following inventive compounds show, at an active ingredient concentration of 10 ppm, an efficacy of 70% or more: […]

CON=C(C)c1cccc(C2CC(c3csc(C4CCN(C(=O)Nc5cc(Cl)ccc5C)CC4)n3)=NO2)c1 (mixture of isomers) [Example I-23]
Eff. % [1]: 100%
Eff. % [2]: 98%

CON=Cc1ccccc1C1CC(c2csc(C3CCN(C(=O)Nc4cc(Cl)ccc4C)CC3)n2)=NO1 (stereo not shown) [Example I-41, N-(5-Chloro-2-methylphenyl)-4-[4-(5-{2-[(methoxyimino)methyl]phenyl}-4,5-dihydro-1,2-oxazol-3-yl)-1,3-thiazol-2-yl]piperidine-1-carboxamide]
Eff. % [1]: 100%
Eff. % [2]: 81%

CON=Cc1cccc(C2CC(c3csc(C4CCN(C(=O)Nc5cc(Cl)ccc5C)CC4)n3)=NO2)c1 (mixture of isomers) [Example I-19]
Eff. % [1]: 100%
Eff. % [2]: 100%

CCON=C(C)c1cccc(C2CC(c3csc(C4CCN(C(=O)Cn5nc(C(F)F)cc5C(F)F)CC4)n3)=NO2)c1 (mixture of isomers) [Example I-5]
Eff. % [1]: 100%
Eff. % [2]: 87%

C[Si](C)(C)C#Cc1ccccc1C1CC(c2csc(C3CCN(C(=O)Cn4nc(C(F)F)cc4C(F)F)CC3)n2)=NO1 (stereo not shown) [Example I-133]
Eff. % [1]: 100%
Eff. % [2]: 85%

Cc1ccc(Cl)cc1NC(=O)N1CCC(c2nc(C3=NOC(c4c(Cl)cccc4OS(C)(=O)=O)C3)cs2)CC1 (stereo not shown) [Example I-54]
Eff. % [1]: 94%
Eff. % [2]: 100%

C#CCOCc1ccccc1C1CC(c2csc(C3CCN(C(=O)Cn4nc(C(F)F)cc4C(F)F)CC3)n2)=NO1 (stereo not shown) [Example I-53]
Eff. % [1]: 94%
Eff. % [2]: 96%

C#CCOCc1ccccc1C1CC(c2csc(C3CCN(C(=O)Cn4nc(C(F)F)cc4C(F)F)CC3)n2)=NO1 (stereo not shown) [Example I-138]
Eff. % [1]: 93%
Eff. % [2]: 98%

Cc1cc(C(F)(F)F)nn1CC(=O)N1CCC(c2nc(C3=NOC(c4ccccc4OS(=O)(=O)C(F)(F)F)C3)cs2)CC1 (stereo not shown) [Example I-125]
Eff. % [1]: 89%
Eff. % [2]: 100%

O=C(Cn1nc(C(F)F)cc1C(F)F)N1CCC(c2nc(C3=NOC(c4cccc(OS(=O)(=O)C5CC5)c4)C3)cs2)CC1 (stereo not shown) [Example I-83]
Eff. % [1]: 98%
Eff. % [2]: 94%

N#CCOc1ccc(C2CC(c3csc(C4CCN(C(=O)Cn5nc(C(F)F)cc5C(F)F)CC4)n3)=NO2)cc1 (stereo not shown) [Example I-81]
Eff. % [1]: 100%
Eff. % [2]: 99%

COCCS(=O)(=O)Cc1ccccc1C1CC(c2csc(C3CCN(C(=O)Cn4nc(C(F)F)cc4C(F)F)CC3)n2)=NO1 (stereo not shown) [Example I-57]
Eff. % [1]: 94%
Eff. % [2]: 90%

O=C(Oc1ccccc1C1CC(c2csc(C3CCN(C(=O)Cn4nc(C(F)F)cc4C(F)F)CC3)n2)=NO1)c1ccccc1 (stereo not shown) [Example I-131]
Eff. % [1]: 100%
Eff. % [2]: 94%

CC(=O)OCc1ccccc1C1CC(c2csc(C3CCN(C(=O)Cn4nc(C(F)(F)F)cc4C)CC3)n2)=NO1 (stereo not shown) [Example I-47]
Eff. % [1]: 94%
Eff. % [2]: 90%

CCS(=O)(=O)Oc1ccccc1C1CC(c2csc(C3CCN(C(=O)Cn4nc(C(F)(F)F)cc4C)CC3)n2)=NO1 (stereo not shown) [Example I-119]
Eff. % [1]: 89%
Eff. % [2]: 100%

C/C=C/C(=O)Oc1ccccc1C1CC(c2csc(C3CCN(C(=O)Cn4nc(C(F)F)cc4C(F)F)CC3)n2)=NO1 (stereo not shown) [Example I-82]
Eff. % [1]: 70%
Eff. % [2]: 94%

C#CCN(C=O)c1ccccc1C1CC(c2csc(C3CCN(C(=O)Cn4nc(C(F)F)cc4C(F)F)CC3)n2)=NO1 (stereo not shown) [Example I-117]
Eff. % [1]: 79%
Eff. % [2]: 96%

O=C(Cn1nc(C(F)F)cc1C(F)F)N1CCC(c2nc(C3=NOC(c4ccccc4OS(=O)(=O)C(F)(F)F)C3)cs2)CC1 (stereo not shown) [Example I-115]
Eff. % [1]: 88%
Eff. % [2]: 100%

N#CCOc1cccc(Cl)c1C1CC(c2csc(C3CCN(C(=O)Cn4nc(C(F)F)cc4C(F)F)CC3)n2)=NO1 (stereo not shown) [Example I-75]
Eff. % [2]: 100%

CON=Cc1cccc(C2CC(c3csc(C4CCN(C(=O)Cn5nc(C(F)F)cc5C(F)F)CC4)n3)=NO2)c1 (mixture of isomers) [Example I-16]
Eff. % [2]: 94%

Cc1cc(C(F)(F)F)nn1CC(=O)N1CCC(c2nc(C3=NOC(c4cccc(C=NOC(C)C)c4)C3)cs2)CC1 (mixture of isomers) [Example I-8]
Eff. % [1]: 100%

Cc1cc(C(F)(F)F)nn1CC(=O)N1CCC(c2nc(C3=NOC(c4ccccc4NC=O)C3)cs2)CC1 (stereo not shown) [Example I-109]
Eff. % [1]: 100%

Cc1cc(C(F)(F)F)nn1CC(=O)N1CCC(c2nc(C3=NOC(c4ccccc4C=NOC(C)C)C3)cs2)CC1 (mixture of isomers) [Example I-39]
Eff. % [1]: 100%

O=C(Cn1nc(C(F)F)cc1C(F)F)N1CCC(c2nc(C3=NOC(c4ccccc4OC(=O)C4(Cl)CC4)C3)cs2)CC1 (stereo not shown) [Example I-107]
Eff. % [1]: 100%

CC(C)ON=Cc1cccc(C2CC(c3csc(C4CCN(C(=O)Cn5nc(C(F)F)cc5C(F)F)CC4)n3)=NO2)c1 (mixture of isomers) [Example I-6]
Eff. % [1]: 100%

COCC[S+]([O-])Cc1ccccc1C1CC(c2csc(C3CCN(C(=O)Cn4nc(C(F)F)cc4C(F)F)CC3)n2)=NO1 (stereo not shown) [Example I-56]
Eff. % [1]: 94%

O=C(O)c1ccccc1C1CC(c2csc(C3CCN(C(=O)Cn4nc(C(F)F)cc4C(F)F)CC3)n2)=NO1 (stereo not shown) [Example I-134]
Eff. % [1]: 93%

CC(=NOC(C)C)c1cccc(C2CC(c3csc(C4CCN(C(=O)Cn5nc(C(F)F)cc5C(F)F)CC4)n3)=NO2)c1 (mixture of isomers) [Example I-20]
Eff. % [1]: 100%

CC(=O)Nc1ccc(C2CC(c3csc(C4CCN(C(=O)Cn5nc(C(F)F)cc5C(F)F)CC4)n3)=NO2)cc1 (stereo not shown) [Example I-25]
Eff. % [2]: 97%

C=CCOCc1ccccc1C1CC(c2csc(C3CCN(C(=O)Cn4nc(C(F)F)cc4C(F)F)CC3)n2)=NO1 (stereo not shown) [Example I-139]
Eff. % [1]: 80%

COCCS(=O)(=O)Cc1ccccc1C1CC(c2csc(C3CCN(C(=O)Cn4nc(C(F)(F)F)cc4C)CC3)n2)=NO1 (stereo not shown) [Example I-45]
Eff. % [1]: 94%

Cc1cc(C(F)F)nn1CC(=O)N1CCC(c2nc(C3=NOC(C)(c4ccccc4OS(C)(=O)=O)C3)cs2)CC1 (stereo not shown) [Example I-44]
Eff. % [1]: 94%

C=CC(=O)Oc1ccccc1C1CC(c2csc(C3CCN(C(=O)Cn4nc(C(F)(F)F)cc4C)CC3)n2)=NO1 (stereo not shown) [Example I-104]
Eff. % [1]: 97%

Cc1cc(C(F)F)nn1CC(=O)N1CCC(c2nc(C3=NOC(c4ccccc4OS(C)(=O)=O)C3)cs2)CC1 (stereo not shown) [Example I-51]
Eff. % [1]: 97%

CCON=Cc1cccc(C2CC(c3csc(C4CCN(C(=O)Cn5nc(C(F)(F)F)cc5C)CC4)n3)=NO2)c1 (stereo not shown) [Example I-11]
Eff. % [1]: 100%

CC1(c2ccccc2OS(C)(=O)=O)CC(c2csc(C3CCN(C(=O)Cn4nc(C(F)F)cc4C(F)F)CC3)n2)=NO1 (stereo not shown) [Example I-43]
Eff. % [1]: 94%

Cc1cc(C(F)(F)F)nn1CC(=O)N1CCC(c2nc(C3=NOC(c4ccc(OS(C)(=O)=O)cc4)C3)cs2)CC1 (stereo not shown) [Example I-96]
Eff. % [1]: 95%

Cc1ccc(S(=O)(=O)Oc2ccccc2C2(C)CC(c3csc(C4CCN(C(=O)Cn5nc(C(F)F)cc5C(F)F)CC4)n3)=NO2)cc1 (stereo not shown) [Example I-48]
Eff. % [1]: 94%

N#CCOc1cccc(C2CC(c3csc(C4CCN(C(=O)Cn5nc(C(F)F)cc5C(F)F)CC4)n3)=NO2)c1 (stereo not shown) [Example I-110]
Eff. % [1]: 100%

O=C(Cn1nc(C(F)F)cc1C(F)F)N1CCC(c2nc(C3=NOC(c4cccc(OCC#Cc5cccc6ccccc56)c4)C3)cs2)CC1 (stereo not shown) [Example I-137]
Eff. % [1]: 100%
